Experimental data taken from PubChem BioAssay (NCI).
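Interpolation was linear, between the two tested concentrations surrounding the appropriate level; five concentrations were tested over 48 hours in 96-well plates. GI50 marks 50% less growth. Definition used: TGI = concentration required for complete inhibition of growth.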

Experiments:
Experiment in all cases: growth of human tumour cells (NCI), 48 h
[1] = test system: 786-0 renal
[2] = test system: A498 renal
[3] = test system: A549 NSCLC
[4] = test system: ACHN renal
[5] = test system: BT-549 breast
[6] = test system: CAKI-1 renal
[7] = test system: CCRF-CEM leukemia
[8] = test system: COLO 205 colon
[9] = test system: DU-145 prostate
[10] = test system: EKVX NSCLC
[11] = test system: HCC-2998 colon
[12] = test system: HCT-116 colon
[13] = test system: HCT-15 colon
[14] = test system: HL-60(TB) leukemia
[15] = test system: HOP-62 NSCLC
[16] = test system: HOP-92 NSCLC
[17] = test system: HS 578T breast
[18] = test system: HT29 colon
[19] = test system: IGROV1 ovarian
[20] = test system: K-562 leukemia
[21] = test system: KM12 colon
[22] = test system: LOX IMVI melanoma
[23] = test system: M14 melanoma
[24] = test system: MALME-3M melanoma
[25] = test system: MCF7 breast
[26] = test system: MDA-MB-231 breast
[27] = test system: MDA-MB-435
[28] = test system: MOLT-4 leukemia
[29] = test system: NCI-H226 lung
[30] = test system: NCI-H23 lung
[31] = test system: NCI-H460 lung
[32] = test system: NCI-H522 lung
[33] = test system: NCI/ADR-RES ovarian
[34] = test system: OVCAR-3 ovarian
[35] = test system: OVCAR-4 ovarian
[36] = test system: OVCAR-5 ovarian
[37] = test system: OVCAR-8 ovarian
[38] = test system: PC-3 prostate
[39] = test system: RPMI-8226 leukemia
[40] = test system: RXF 393 renal
[41] = test system: SF-268 CNS
[42] = test system: SF-295 CNS
[43] = test system: SF-539 CNS
[44] = test system: SK-MEL-2 melanoma
[45] = test system: SK-MEL-28 melanoma
[46] = test system: SK-MEL-5 melanoma
[47] = test system: SK-OV-3 ovarian
[48] = test system: SN12C renal
[49] = test system: SNB-19 CNS
[50] = test system: SNB-75 CNS
[51] = test system: SR leukemia
[52] = test system: SW-620 colon
[53] = test system: T-47D breast
[54] = test system: TK-10 renal
[55] = test system: U251 CNS
[56] = test system: UACC-257 melanoma
[57] = test system: UACC-62 melanoma
[58] = test system: UO-31 renal

Work on `Cc1cccc2c3c(sc12)C(c1ccc(Cl)cc1)C(C#N)=C(/N=C/c1ccc(Cl)cc1)O3` (stereo unspecified) yielded a GI50 [1] of 0.653 µM, a TGI [1] of 27.8 µM and a GI50 [2] of 0.0748 µM. For the same compound, the TGI [2] was 0.953 µM, the GI50 [3] was 0.489 µM and the TGI [3] was > 100 µM. For the same compound, the GI50 [4] was 0.858 µM, the TGI [4] was > 100 µM and the GI50 [5] was 1.38 µM. The TGI [5] was > 57.9 µM, the GI50 [6] was 0.265 µM and the TGI [6] was 20.7 µM. For the same compound, the GI50 [7] was 0.381 µM, the TGI [7] was > 63.7 µM and the GI50 [8] was 0.456 µM. For the same compound, the GI50 [9] was 0.485 µM, the TGI [9] was > 100 µM and the GI50 [10] was 0.565 µM. The TGI [10] was > 100 µM, the GI50 [11] was 1.04 µM and the TGI [11] was 11.2 µM. The GI50 [12] was 0.402 µM, the TGI [12] was > 100 µM and the GI50 [13] was 0.392 µM. The TGI [13] was > 100 µM, the GI50 [14] was 0.325 µM and the TGI [14] was 2.54 µM. It also gave a GI50 [15] of 0.573 µM, a TGI [15] of 36.5 µM and a GI50 [16] of 6.04 µM. For the same compound, the TGI [16] was 36.7 µM, the GI50 [17] was 0.258 µM and the TGI [17] was 2.64 µM. The GI50 [18] was 0.388 µM, the TGI [18] was > 52 µM and the GI50 [19] was 0.413 µM. For the same compound, the TGI [19] was > 100 µM, the GI50 [20] was 0.281 µM and the TGI [20] was > 46.5 µM. For the same compound, the GI50 [21] was 0.448 µM, the TGI [21] was > 100 µM and the GI50 [22] was 0.651 µM. For the same compound, the TGI [22] was > 100 µM, the GI50 [23] was 0.308 µM and the TGI [23] was > 52.6 µM. The GI50 [24] was 0.595 µM, the TGI [24] was > 100 µM and the GI50 [25] was 0.301 µM. The TGI [25] was > 100 µM, the GI50 [26] was 0.754 µM and the TGI [26] was 20.6 µM. For the same compound, the GI50 [27] was 0.172 µM, the TGI [27] was 0.407 µM and the GI50 [28] was 0.517 µM. For the same compound, the TGI [28] was > 100 µM, the GI50 [29] was 0.75 µM and the TGI [29] was > 19.7 µM. For the same compound, the GI50 [30] was 0.446 µM, the TGI [30] was 14.2 µM and the GI50 [31] was 0.425 µM. The TGI [31] was > 100 µM, the GI50 [32] was 0.304 µM and the TGI [32] was 3.12 µM. The GI50 [33] was 0.307 µM, the TGI [33] was 4.27 µM and the GI50 [34] was 0.393 µM. The TGI [34] was 6.81 µM, the GI50 [35] was 2.17 µM and the TGI [35] was > 100 µM. For the same compound, the GI50 [36] was 0.558 µM, the TGI [36] was > 100 µM and the GI50 [37] was 0.46 µM. For the same compound, the TGI [37] was > 100 µM, the GI50 [38] was 0.392 µM and the TGI [38] was > 100 µM. The GI50 [39] was 0.408 µM, the TGI [39] was > 28.3 µM and the GI50 [40] was 0.24 µM. For the same compound, the TGI [40] was 0.776 µM, the GI50 [41] was 1.93 µM and the TGI [41] was 46.2 µM. For the same compound, the GI50 [42] was 0.267 µM, the TGI [42] was 2.37 µM and the GI50 [43] was 0.298 µM. For the same compound, the TGI [43] was 1.26 µM, the GI50 [44] was 2.86 µM and the TGI [44] was 29.9 µM. The GI50 [45] was 4.73 µM, the TGI [45] was > 100 µM and the GI50 [46] was 0.47 µM. The TGI [46] was > 100 µM, the GI50 [47] was 3.62 µM and the TGI [47] was 40 µM. The GI50 [48] was 0.623 µM, the TGI [48] was > 100 µM and the GI50 [49] was 0.457 µM. The TGI [49] was 24.3 µM, the GI50 [50] was 0.186 µM and the TGI [50] was 0.748 µM. The GI50 [51] was 0.36 µM, the TGI [51] was > 34.9 µM and the GI50 [52] was 0.434 µM. For the same compound, the TGI [52] was > 100 µM, the GI50 [53] was 0.625 µM and the TGI [53] was > 100 µM. It also gave a GI50 [54] of 12.2 µM, a TGI [54] of 51.3 µM and a GI50 [55] of 0.443 µM. The TGI [55] was 21.3 µM, the GI50 [56] was > 100 µM and the TGI [56] was > 100 µM. The GI50 [57] was 0.337 µM, the TGI [57] was 12.7 µM and the GI50 [58] was 0.653 µM. The TGI [58] was > 100 µM.
With `COC(=O)C1=CN(CC2=CC(=O)C(C)=CC2=O)C=C(C(=O)OC)C1c1cccc(OC)c1OC` the GI50 [1] was 7.56 µM, the TGI [1] was 25.3 µM and the GI50 [2] was 20.8 µM. For the same compound, the TGI [2] was 55.2 µM, the GI50 [3] was 13 µM and the TGI [3] was > 51.5 µM. For the same compound, the GI50 [4] was 6.69 µM, the TGI [4] was 22.2 µM and the GI50 [5] was 34.3 µM. For the same compound, the TGI [5] was > 100 µM, the GI50 [6] was 10.9 µM and the TGI [6] was 29.7 µM. For the same compound, the GI50 [7] was 12.5 µM, the TGI [7] was 77.9 µM and the GI50 [8] was 9.81 µM. The TGI [8] was > 32.6 µM, the GI50 [9] was 17.4 µM and the TGI [9] was 33.1 µM. The GI50 [10] was 35.6 µM, the TGI [10] was > 100 µM and the GI50 [11] was 14.2 µM. The TGI [11] was 27.2 µM, the GI50 [12] was 18.5 µM and the TGI [12] was 36.7 µM. For the same compound, the GI50 [13] was 18.4 µM, the TGI [13] was 36.9 µM and the GI50 [14] was 5.07 µM. The TGI [14] was 14.1 µM, the GI50 [15] was 15.8 µM and the TGI [15] was > 48.1 µM. It also gave a GI50 [16] of 2.68 µM, a TGI [16] of 17.1 µM and a GI50 [17] of 27.1 µM. For the same compound, the TGI [17] was > 87.3 µM, the GI50 [18] was 41.1 µM and the TGI [18] was > 100 µM. For the same compound, the GI50 [19] was 17.4 µM, the TGI [19] was 47.3 µM and the GI50 [20] was 3.62 µM. It also gave a TGI [20] of 26 µM, a GI50 [21] of 18 µM and a TGI [21] of 57.2 µM. It also gave a GI50 [22] of 20 µM, a TGI [22] of 45.2 µM and a GI50 [23] of 15.3 µM. For the same compound, the TGI [23] was 29.4 µM, the GI50 [24] was 13.5 µM and the TGI [24] was 34.3 µM. For the same compound, the GI50 [25] was 18.6 µM, the TGI [25] was 55.2 µM and the GI50 [26] was 11.8 µM. For the same compound, the TGI [26] was 28.9 µM, the GI50 [27] was 15.8 µM and the TGI [27] was 39.3 µM. It also gave a GI50 [28] of 3.28 µM, a TGI [28] of 9.68 µM and a GI50 [29] of 15.6 µM. For the same compound, the TGI [29] was 40.5 µM, the GI50 [30] was 22.4 µM and the TGI [30] was > 55.1 µM. For the same compound, the GI50 [31] was 19.7 µM, the TGI [31] was > 70.7 µM and the GI50 [32] was 17 µM. The TGI [32] was 45.2 µM, the GI50 [33] was 18.3 µM and the TGI [33] was 38.3 µM. It also gave a GI50 [34] of 8.19 µM, a TGI [34] of 24 µM and a GI50 [35] of 12 µM. The TGI [35] was > 60.5 µM, the GI50 [36] was 18.7 µM and the TGI [36] was 36.3 µM. For the same compound, the GI50 [37] was 16.2 µM, the TGI [37] was 42.8 µM and the GI50 [38] was 15.3 µM. For the same compound, the TGI [38] was 38.6 µM, the GI50 [39] was 3.09 µM and the TGI [39] was 10.9 µM. The GI50 [40] was 11.5 µM, the TGI [40] was 26.9 µM and the GI50 [41] was 18.7 µM. The TGI [41] was > 68.4 µM, the GI50 [42] was 6.88 µM and the TGI [42] was > 41.8 µM. For the same compound, the GI50 [43] was 17.1 µM, the TGI [43] was 56.2 µM and the GI50 [44] was 19.8 µM. The TGI [44] was 52.1 µM, the GI50 [45] was 31 µM and the TGI [45] was > 57.9 µM. For the same compound, the GI50 [46] was 15.2 µM, the TGI [46] was 32.6 µM and the GI50 [47] was 42.8 µM. For the same compound, the TGI [47] was > 61.5 µM, the GI50 [48] was 13.8 µM and the TGI [48] was 34 µM. For the same compound, the GI50 [49] was > 43.1 µM, the TGI [49] was > 70 µM and the GI50 [50] was > 100 µM. The TGI [50] was > 100 µM, the GI50 [51] was 1.08 µM and the TGI [51] was 13.8 µM. For the same compound, the GI50 [52] was 19.4 µM, the TGI [52] was > 70.6 µM and the GI50 [53] was 46.2 µM. The TGI [53] was > 94.4 µM, the GI50 [54] was 8.35 µM and the TGI [54] was 27.1 µM. For the same compound, the GI50 [55] was 18.6 µM, the TGI [55] was 50.2 µM and the GI50 [56] was 18.5 µM. It also gave a TGI [56] of 43.5 µM, a GI50 [57] of 13 µM and a TGI [57] of 30.4 µM. For the same compound, the GI50 [58] was 12.9 µM and the TGI [58] was 25.5 µM.
